Assay results: patent US20230143345A1, “PHARMACEUTICAL COMPOSITION FOR PREVENTION OR TREATMENT OF DISEASES CAUSED BY SARS-COV-2” (DONG WHA PHARM. CO., LTD., priority 2020, published 2023)
“And” between values parts separate entries of the source, which are not always exact repeats. Identical values can stand only once. Like-named read-outs stand apart in the source and are kept apart here.

Experiments:
[1] = system: SARS-CoV-2; experiment: microbe, parasite or virus in culture; assay type: cell-based
[2] = system: Vero cell lines; experiment: Cell viability of Vero cells in the SARS-CoV-2 inhibition experiment (Example 2)
[3] = Severe acute respiratory syndrome coronavirus 2, Vero, 24 h, read-out: SARS-CoV-2 virus 50% inhibitory ability (IC50 value)

CCC(CC)COC(=O)[C@H](C)N[P@](=O)(OC[C@H]1O[C@@](C#N)(c2ccc3c(N)ncnn23)[C@H](O)[C@@H]1O)Oc1ccccc1 [Remdesivir]
inhibition at 6.25 µM ([1]; Severe acute respiratory syndrome coronavirus 2, Vero, 24 h, concentration 6.25 uM, read-out: SARS-CoV-2 virus inhibitory ability (%, average ± standard deviation)): 10.8 ± 43.8% | inhibition at 12.5 µM ([1]; Severe acute respiratory syndrome coronavirus 2, Vero, 24 h, concentration 12.5 uM, read-out: SARS-CoV-2 virus inhibitory ability (%, average ± standard deviation)): 63.6 ± 1.23% | inhibition at 25 µM ([1]; Severe acute respiratory syndrome coronavirus 2, Vero, 24 h, concentration 25 uM, read-out: SARS-CoV-2 virus inhibitory ability (%, average ± standard deviation)): 84.6 ± 2.21% | inhibition at 50 µM ([1]; Severe acute respiratory syndrome coronavirus 2, Vero, 24 h, concentration 50 uM, read-out: SARS-CoV-2 virus inhibitory ability (%, average ± standard deviation)): 94.38 ± 0.41% | IC50 [1, 3]: 10.8 µM | SARS-CoV-2 virus inhibitory ability (%, average ± standard deviation) ([1]; concentration 0.10 uM, 0.1 µM): −2.24 ± 7.45% | SARS-CoV-2 virus inhibitory ability (%, average ± standard deviation) ([1]; concentration 0.20 uM, 0.2 µM): 2.60 ± 1.90% and 7.2 ± 0.17% | SARS-CoV-2 virus inhibitory ability (%, average ± standard deviation) ([1]; concentration 0.39 uM, 0.39 µM): −1.29 ± 2.86% and 4.8 ± 4.21% | SARS-CoV-2 virus inhibitory ability (%, average ± standard deviation) ([1]; concentration 1.56 uM, 1.56 µM): 0.65 ± 5.05% and 7.4 ± 1.96% | SARS-CoV-2 virus inhibitory ability (%, average ± standard deviation) ([1]; concentration 3.13 uM, 3.13 µM): 5.89 ± 3.28% and 11.8 ± 0.80% | SARS-CoV-2 virus inhibitory ability (%, average ± standard deviation) ([1]; concentration 6.25 uM, 6.25 µM): 16.2 ± 2.56% | SARS-CoV-2 virus inhibitory ability (%, average ± standard deviation) ([1]; concentration 12.5 uM, 12.5 µM): 47.9 ± 0.01% | SARS-CoV-2 virus inhibitory ability (%, average ± standard deviation) ([1]; concentration 25 uM, 25 µM): 82.1 ± 1.40% | SARS-CoV-2 virus inhibitory ability (%, average ± standard deviation) ([1]; concentration 50 uM, 50 µM): 93.5 ± 1.80% | IC50 ([1]; read-out: SARS-CoV-2 virus 50% inhibitory ability (IC50 value)): 12.7 µM

COc1cc2c(OC)c3c(c(-c4ccc5c(c4)OCO5)c2cc1OC)C(=O)OC3 [Justicidin-A, 9-benzo[1,3]dioxol-5-yl-4,6,7-trimethoxy-3H -naphtho[2,3-c]furan-1-one]
IC50 [1, 3]: 0.159 µM | inhibition at 0.1 µM ([1]; Severe acute respiratory syndrome coronavirus 2, concentration 0.10 uM, Vero cells, 24 h, read-out: SARS-CoV-2 virus inhibitory ability (%, average ± standard deviation)): 25.7 ± 12.3% | inhibition at 0.2 µM ([1]; Severe acute respiratory syndrome coronavirus 2, concentration 0.20 uM, Vero cells, 24 h, read-out: SARS-CoV-2 virus inhibitory ability (%, average ± standard deviation)): 75.3 ± 4.37% | inhibition at 0.39 µM ([1]; Severe acute respiratory syndrome coronavirus 2, concentration 0.39 uM, Vero cells, 24 h, read-out: SARS-CoV-2 virus inhibitory ability (%, average ± standard deviation)): 95.2 ± 1.48% | inhibition at […] ([1]; Severe acute respiratory syndrome coronavirus 2, concentration 0.78 uM, Vero cells, 24 h, read-out: SARS-CoV-2 virus inhibitory ability (%, average ± standard deviation)): 99 ± 1.58% | inhibition at 1.56 µM ([1]; Severe acute respiratory syndrome coronavirus 2, concentration 1.56 uM, Vero cells, 24 h, read-out: SARS-CoV-2 virus inhibitory ability (%, average ± standard deviation)): 99 ± 0.57% | inhibition at 3.13 µM ([1]; Severe acute respiratory syndrome coronavirus 2, concentration 3.13 uM, Vero cells, 24 h, read-out: SARS-CoV-2 virus inhibitory ability (%, average ± standard deviation)): 100 ± 0.36% | inhibition at 6.25 µM ([1]; Severe acute respiratory syndrome coronavirus 2, concentration 6.25 uM, Vero cells, 24 h, read-out: SARS-CoV-2 virus inhibitory ability (%, average ± standard deviation)): 99.6 ± 0.16% | inhibition at 12.5 µM ([1]; Severe acute respiratory syndrome coronavirus 2, concentration 12.5 uM, Vero cells, 24 h, read-out: SARS-CoV-2 virus inhibitory ability (%, average ± standard deviation)): 98.1 ± 1.47% | inhibition at 25 µM ([1]; Severe acute respiratory syndrome coronavirus 2, concentration 25 uM, Vero cells, 24 h, read-out: SARS-CoV-2 virus inhibitory ability (%, average ± standard deviation)): 95.3 ± 0.61% | inhibition at 50 µM ([1]; Severe acute respiratory syndrome coronavirus 2, concentration 50 uM, Vero cells, 24 h, read-out: SARS-CoV-2 virus inhibitory ability (%, average ± standard deviation)): 93.3 ± 1.69% | SARS-CoV-2 inhibitory ability (in words) ([1]; Vero cells, comparison at IC50 values with Remdesivir, Lopinavir and Chloroquine): remarkably more excellent | Cell viability (%, average ± standard deviation) ([2]; concentration 0.20 uM): 97.6 ± 0.61% | Cell viability (%, average ± standard deviation) ([2]; concentration 0.39 uM): 101.3 ± 1.55% | Cell viability (%, average ± standard deviation) ([2]; concentration 1.56 uM): 97.4 ± 0.09% | Cell viability (%, average ± standard deviation) ([2]; concentration 3.13 uM): 98.4 ± 1.93% | Cell viability (%, average ± standard deviation) ([2]; concentration 6.25 uM): 96.9 ± 3.33% | Cell viability (%, average ± standard deviation) ([2]; concentration 12.5 uM): 96.5 ± 0.20% | Cell viability (%, average ± standard deviation) ([2]; concentration 25 uM): 99.5 ± 1.81% | Cell viability (%, average ± standard deviation) ([2]; concentration 50 uM): 98.0 ± 3.04%

CCN(CC)CCCC(C)Nc1ccnc2cc(Cl)ccc12 (stereo not drawn) [Chloroquine]
inhibition at 0.1 µM ([1]; Severe acute respiratory syndrome coronavirus 2, Vero, 24 h, concentration 0.10 uM, Vero cells, 24 h, read-out: SARS-CoV-2 virus inhibitory ability (%, average ± standard deviation)): -2.83 ± 2.09% | inhibition at 0.2 µM ([1]; Severe acute respiratory syndrome coronavirus 2, Vero, 24 h, concentration 0.20 uM, Vero cells, 24 h, read-out: SARS-CoV-2 virus inhibitory ability (%, average ± standard deviation)): -4.26 ± 0.03% | inhibition at 0.39 µM ([1]; Severe acute respiratory syndrome coronavirus 2, Vero, 24 h, concentration 0.39 uM, Vero cells, 24 h, read-out: SARS-CoV-2 virus inhibitory ability (%, average ± standard deviation)): -2.86 ± 0.21% | inhibition at 1.56 µM ([1]; Severe acute respiratory syndrome coronavirus 2, Vero, 24 h, concentration 1.56 uM, Vero cells, 24 h, read-out: SARS-CoV-2 virus inhibitory ability (%, average ± standard deviation)): 3.52 ± 6.42% | inhibition at 3.13 µM ([1]; Severe acute respiratory syndrome coronavirus 2, Vero, 24 h, concentration 3.13 uM, Vero cells, 24 h, read-out: SARS-CoV-2 virus inhibitory ability (%, average ± standard deviation)): 61.1 ± 7.72% | inhibition at 6.25 µM ([1]; Severe acute respiratory syndrome coronavirus 2, Vero, 24 h, concentration 6.25 uM, Vero cells, 24 h, read-out: SARS-CoV-2 virus inhibitory ability (%, average ± standard deviation)): 97.7 ± 0.16% | inhibition at 12.5 µM ([1]; Severe acute respiratory syndrome coronavirus 2, Vero, 24 h, concentration 12.5 uM, Vero cells, 24 h, read-out: SARS-CoV-2 virus inhibitory ability (%, average ± standard deviation)): 99.31 ± 0.39% | inhibition at 25 µM ([1]; Severe acute respiratory syndrome coronavirus 2, Vero, 24 h, concentration 25 uM, Vero cells, 24 h, read-out: SARS-CoV-2 virus inhibitory ability (%, average ± standard deviation)): 98.93 ± 0.07% | inhibition at 50 µM ([1]; Severe acute respiratory syndrome coronavirus 2, Vero, 24 h, concentration 50 uM, Vero cells, 24 h, read-out: SARS-CoV-2 virus inhibitory ability (%, average ± standard deviation)): 99.4 ± 1% | IC50 ([1]; Severe acute respiratory syndrome coronavirus 2, Vero, 24 h, read-out: SARS-CoV-2 virus 50% inhibitory ability (IC50 value), Vero cells dosed while being infected, 24 h, compounds): 8.78 µM | Cell viability (%, average ± standard deviation) ([2]; concentration 0.10 uM): 83.10 ± 6.34% | Cell viability (%, average ± standard deviation) ([2]; concentration 0.20 uM): 87.70 ± 0.37% | Cell viability (%, average ± standard deviation) ([2]; concentration 0.39 uM): 83.14 ± 3.44% | Cell viability (%, average ± standard deviation) ([2]; concentration 1.56 uM): 89.11 ± 4.21% | Cell viability (%, average ± standard deviation) ([2]; concentration 3.13 uM): 97.41 ± 1.82% | Cell viability (%, average ± standard deviation) ([2]; concentration 6.25 uM): 90.84 ± 3.72% | Cell viability (%, average ± standard deviation) ([2]; concentration 12.5 uM): 83.63 ± 0.73% | Cell viability (%, average ± standard deviation) ([2]; concentration 25 uM): 71.29 ± 6.06% | Cell viability (%, average ± standard deviation) ([2]; concentration 50 uM): 59.69 ± 1.38%
